We go through 12 compounds from ChEMBL document CHEMBL4613261, “Metabolic and Pharmaceutical Aspects of Fluorinated Compounds” (J Med Chem, 2020).

For orientation: logD means lipophilicity at a set pH, counting ionised and neutral species. By bioavailability is commonly meant the share of a dose that reaches the circulation, judged against a reference dose that is usually intravenous. By IC50 is commonly meant the concentration at which inhibition is half-maximal.

Data set [1] can be described thus: Drug degradation assessed as 4-[[9-[(2-fluoro-4-pyridyl)methyl]-10-oxo-9-anthryl]methyl]-1H-pyridin-2-one metabolite formation by measuring relative abundance measured after preserving compound for 6 months at 40 degreeC by LC-MS/MS analysis. In kind it is physicochemical. As to conditions: 4383 h.
A short description of data set [2]: Drug degradation in presence of 1% magnesium stearate and lactose monohydrate measured after preserving compound for 1 to 3 months at 40 degreeC by LC-MS/MS analysis. Type of data set: physicochemical. As to conditions: read-out: Drug degradation.
Data set [3] deals with T1, Alanine racemase, biosynthetic (Escherichia coli K-12, UniProt P0A6B4). Briefly: Substrate activity at Escherichia coli B alanine racemase assessed as (2S)-6-amino-2-(((Z)-1-carboxyallylideneamino)(3-hydroxy-2-methyl-5-(phosphonooxymethyl)pyridin-4-yl)methylamino)hexanoic acid adduct formation. Type of data set: ADME.
T1 sequence (P0A6B4 whole entry): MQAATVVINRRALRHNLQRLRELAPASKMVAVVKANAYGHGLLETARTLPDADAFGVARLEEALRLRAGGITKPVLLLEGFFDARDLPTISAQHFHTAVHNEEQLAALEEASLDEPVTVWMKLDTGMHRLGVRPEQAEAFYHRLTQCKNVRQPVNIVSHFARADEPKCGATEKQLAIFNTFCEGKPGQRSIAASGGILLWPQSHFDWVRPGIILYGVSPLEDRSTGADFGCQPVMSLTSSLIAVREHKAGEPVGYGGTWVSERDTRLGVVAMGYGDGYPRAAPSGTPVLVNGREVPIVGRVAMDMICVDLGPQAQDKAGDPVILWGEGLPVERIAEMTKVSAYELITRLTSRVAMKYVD
The target in data set [4] is T1, Alanine racemase, biosynthetic. In words: Substrate activity at Escherichia coli B alanine racemase assessed as (S)-6-amino-2-((E)-1-carboxy-1-((E)-(3-hydroxy-2-methyl-5-(phosphonooxymethyl)pyridin-4-yl)methyleneamino)prop-1-en-2-ylamino)hexanoic acid formation. In kind it is ADME.
Data set [5] shares this target. In words: Substrate activity at Escherichia coli B alanine racemase assessed as 2-oxobut-3-enoic acid formation. In kind it is ADME.
A short description of data set [6]: Prodrug conversion in Sprague-Dawley rat assessed as acyclovir recovery in urine at 0.1 mmol/kg, po measured over 48 hrs by HPLC analysis. Type of data set: ADME, organism-based. Particulars: in vivo.
Data set [7] in a line: Drug metabolism assessed as first order rate constant for 6-formyltryptophan formation. In kind it is physicochemical.
Data set [8] in a line: Half life in rat at 10 mg/kg, iv. Type of data set: ADME, organism-based. As to conditions: in vivo.
Data set [9] in a line: Drug recovery in bile duct-cannulated Sprague-Dawley rat feces at 10 mg/kg, po administered as single dose using 14C labelled compound measured after 48 hrs. Particulars: in vivo. Type of data set: ADME, organism-based.
Data set [10] can be described thus: Lipophilicity, logD of the compound. Particulars: octanol/water. Type of data set: physicochemical.
A short description of data set [11]: Volume of distribution at steady state in Sprague-Dawley rat at 0.5 mg/kg, iv administered as single dose measured after 0.083 to 48 hrs. In kind it is ADME, organism-based. Particulars: in vivo, read-out: Vdss.
The nature of data set [12]: Volume of distribution at steady state in rhesus monkey at 0.1 mg/kg, iv administered as single dose measured after 0.083 to 48 hrs. In kind it is ADME, organism-based, Macaca mulatta. Particulars: in vivo, read-out: Vdss.
Data set [13] is described as follows: Drug recovery in bile duct-cannulated rhesus monkey feces at 10 mg/kg, po administered as single dose using 14C labelled compound measured after 96 hrs. In kind it is ADME, organism-based, Macaca mulatta. Particulars: in vivo.
The nature of data set [14]: Elimination half life in human at 25 to 1200 mg, po administered as suspension measured after 5 to 816 hrs by HPLC-MS/MS analysis. Type of data set: ADME, organism-based. As to conditions: in vivo, read-out: beta t1/2.
Data set [15] in a line: Photodegradation of compound in deionized H20 at 10 uM by HPLC analysis. Type of data set: physicochemical. Particulars: deionized water.
The nature of data set [16]: Oral bioavailability in human at 2 mg administered as single dose and measured up to 168 hrs. In kind it is ADME, organism-based. As to conditions: in vivo.
The nature of data set [17]: Half life in human at 0.25 mg, iv administered as single dose measured up to 168 hrs. In kind it is ADME, organism-based. As to conditions: in vivo.
A short description of data set [18]: Volume of distribution in human at 0.25 mg, iv administered as single dose measured up to 168 hrs. In kind it is ADME, organism-based. As to conditions: in vivo.
The target in another data set is Cytochrome P450 2C9 (Homo sapiens, UniProt P11712). In words: Inhibition of CYP2C9 (unknown origin) assessed as reduction in diclofenac 4-hydroxylation. In kind it is ADME.
Cytochrome P450 2C9, sequence (P11712 whole entry): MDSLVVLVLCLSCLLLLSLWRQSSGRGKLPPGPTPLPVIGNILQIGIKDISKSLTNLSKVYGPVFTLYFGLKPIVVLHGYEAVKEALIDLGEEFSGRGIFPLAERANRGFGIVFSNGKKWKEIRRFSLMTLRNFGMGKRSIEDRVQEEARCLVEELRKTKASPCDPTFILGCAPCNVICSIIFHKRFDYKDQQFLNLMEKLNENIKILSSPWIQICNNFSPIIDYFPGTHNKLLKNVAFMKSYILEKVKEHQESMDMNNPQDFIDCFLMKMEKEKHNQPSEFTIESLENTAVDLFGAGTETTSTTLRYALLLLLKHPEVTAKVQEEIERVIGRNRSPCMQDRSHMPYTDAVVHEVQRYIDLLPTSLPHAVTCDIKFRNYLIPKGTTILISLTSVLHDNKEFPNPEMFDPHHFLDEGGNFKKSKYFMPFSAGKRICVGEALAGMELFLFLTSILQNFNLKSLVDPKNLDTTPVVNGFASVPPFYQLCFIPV
A further data set addresses T2, Cytochrome P450 2C8 (Homo sapiens, UniProt P10632).
T2 sequence (P10632 whole entry): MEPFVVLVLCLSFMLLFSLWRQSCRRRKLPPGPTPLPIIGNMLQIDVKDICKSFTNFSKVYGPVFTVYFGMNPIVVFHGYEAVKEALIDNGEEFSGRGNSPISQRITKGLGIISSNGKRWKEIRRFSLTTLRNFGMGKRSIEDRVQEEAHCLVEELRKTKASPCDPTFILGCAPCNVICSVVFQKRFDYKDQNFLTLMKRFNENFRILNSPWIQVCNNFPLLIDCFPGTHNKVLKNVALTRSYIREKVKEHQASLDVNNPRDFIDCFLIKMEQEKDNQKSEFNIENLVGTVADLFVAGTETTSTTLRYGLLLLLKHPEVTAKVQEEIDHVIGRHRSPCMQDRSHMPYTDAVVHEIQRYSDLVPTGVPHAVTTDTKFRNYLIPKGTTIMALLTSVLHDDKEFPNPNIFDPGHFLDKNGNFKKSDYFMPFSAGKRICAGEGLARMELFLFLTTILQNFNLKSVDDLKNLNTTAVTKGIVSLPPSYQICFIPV
Briefly: Inhibition of CYP2C8 (unknown origin) assessed as reduction in amodiaquine N-deethylation. Type of data set: ADME.

Data set [19] is described as follows: Drug metabolism in human. In kind it is ADME. As to conditions: read-out: Drug metabolism.
The test system of the next data set is Homo sapiens. In words: Induction of fluoride toxicity in human assessed as fluoride level in plasma at 200 mg, po BID administered for at least 6 months (reference value: 2.54 uM). Particulars: in vivo. In kind it is organism-based.

Consider `O=C1c2ccccc2C(Cc2ccnc(F)c2)(Cc2ccnc(F)c2)c2ccccc21`, for which, in [1], the Activity is reported as 0.5%. In addition, the degraded in [2] is less than 0.1%.
Regarding `C=C=C(/N=C/c1c(COP(=O)(O)O)cnc(C)c1O)C(=O)O`, the Activity was determined as 31% in data set [3], 12% in [4] and 57% in data set [5].
With `CC(C)C(=O)OCCOCn1cnc2c(F)nc(N)nc21`, the Drug recovery in [6] is on record as 51%.
`N[C@@H](Cc1c[nH]c2cc(C(F)F)ccc12)C(=O)O`: in data set [7], the K was found to be 0.0039 min⁻¹.
With `CCNC(C)Cc1cccc(SC(F)(F)F)c1` (racemic) [TIFLOREX], in [8], the half-life is 7.4 h.
Take `COc1cc(F)c(C(C)C)cc1-c1ccc(C(F)(F)F)cc1CN1C(=O)O[C@H](c2cc(C(F)(F)F)cc(C(F)(F)F)c2)[C@@H]1C` [ANACETRAPIB]: the Drug recovery in data set [9] was determined as 80%; in [13] it was 90%. This compound also yielded a logD in data set [10] of 7.1. Besides, the Vd in data set [11] came out at 1.1 L/kg; in data set [12], 0.3 L/kg.
In the case of `Cc1cc(Nc2ccc(S(F)(F)(F)(F)F)cc2)n2nc(C(C)(F)F)nc2n1` [DSM-265], the half-life in [14] is 86 to 118 h.
On to `CNCCC(Oc1ccc(C(F)(F)F)cc1)c1ccccc1` (configuration not stated) [FLUOXETINE], for which the half-life at 10 µM in data set [15] was 55.2 h.
In data set [16], `C[C@@H]1C[C@H]2[C@@H]3C[C@H](F)C4=CC(=O)C=C[C@]4(C)[C@@]3(F)[C@@H](O)C[C@]2(C)[C@@]1(OC(=O)c1ccco1)C(=O)SCF` [FLUTICASONE FUROATE] gave a bioavailability of 1.6%. Further, the half-life in data set [17] is 15.3 h. In data set [18], this compound yielded a Vd of 642 L.
On to `Cc1ccc(NC(=O)C2(c3ccc4c(c3)OC(F)(F)O4)CC2)nc1-c1cccc(C(=O)O)c1` [LUMACAFTOR], for which the IC50 on Cytochrome P450 2C9 stood at 32 µM; at Cytochrome P450 2C8 it was 12 µM.
Regarding `FCOC(C(F)(F)F)C(F)(F)F` [SEVOFLURANE], in [19], the metabolised lay within 2 to 5%.
Consider `C[C@@H](c1ncncc1F)[C@](O)(Cn1cncn1)c1ccc(F)cc1F` [VORICONAZOLE], for which the Activity in the data set with Homo sapiens stood at 14.32 µM.
